According to US20170165295A1, “COMPOSITION FOR PREVENTING, ALLEVIATING OR TREATING CONSTIPATION, CONTAINING HIGH HARDNESS MINERAL WATER PREPARED FROM DEEP OCEAN WATER OR DESALINATED GROUNDWATER” (ARIBIO INC., priority 2012, published 2017):
Where a name gives a salt, the structure may show the parent alone. Marks after values point to notes of the source that are not given here.

What was measured:
[1] = Body weight change of loperamide-induced constipated rats
Protocol: (§1) 6-week-old rats (SLC, Japan) were used for an experiment after acclimatization to new environments for 7 days. Five rats were raised per cage at 20-25° C. and 45-50% humidity. The light-dark cycle was 12 hr: 12 hr, and water and food were freely available. The rats were classified into six groups (nine rats per group, a total of 54 rats) based on the body weight thereof. Specific groups are as follows:
(§2) Administration of Test Material Magnesium hydroxide (Mg(OH)2; MagMill™) was purchased from Samnam Pharm. In order to protect test materials from light and moisture, the test materials were stored in a refrigerator at 4° C. The mineral water was orally administered at 10 ml/kg for each time, at an interval of 6 hours (30 ml/kg/day), three times a day, for a total of six days. The administration for each time was conducted 1 hour after administration of loperamide 3 mg/kg. Magnesium hydroxide was mixed with distilled water, and the mixture was orally administered once a day for a total of six days, and the same amount of distilled water was orally administered at the time of second and third administrations. Distilled water, instead of mineral water, was administered to groups 1 and 2.
(§3) In order to induce constipation, loperamide hydrochloride (Sigma, MO, U.S.) 3 mg/kg was mixed with saline water 5 ml/kg, and the mixture was orally administered to animals 1 hour before administration of the test material, once a day, for a total of six days. Detailed methods are disclosed in Bustos et al. Acta Gastroenterol Latinoam, 1991; 21:3-9 and Wintola et al. BMC Gastroenterol, 2010; 10:95, which are incorporated by reference into the present specification.
Body weight was measured once per day 1 day before the test material administration, at the day of the initiation of administration, and 1, 2, 3, 4, and 5 days after the initiation of administration, to verify the body weight change according to administration of the test material. All the animals were fasted (excluding water) for 5 days after the initiation of administration for one overnight in order to decrease the body weight difference due to feed ingestion and measure the intestinal charcoal transit ratio. In addition, the body weight gain was calculated by equation 1.
Body weight gain (g)=body weight at 6th administration last day−body weight at the day of the initiation of administration. [Equation 1]

[2] = test system: loperamide-induced constipated rats; test: Fecal parameters in loperamide-induced constipated rats; type: in vivo; conditions: for Fecal dry-weights / Fecal wet-weights / Numbers of fecal pellets / Water contents of fecal pellets: collected at 4th administration day (24 hrs), mean ± S.D. of nine rats
Protocol: as §1, §2, §3
The fecal pellets of each rat were collected 24 hours after the 4th administration day. The total number, wet weight, and water content of the fecal pellets were checked. The water content was calculated by equation 2 below:
Water content of fecal pellets (%)=((wet weight of fecal pellets−dry weight of fecal pellets)/wet weight of fecal pellets)×100 [Equation 2]
(§4) Multiple comparison tests of the groups with different dosages were conducted. Variance homogeneity was examined using the Levene test (Levene A, Clin Otalary, 1981; 6:145-51). […] In cases where significant deviations from variance homogeneity were observed by the Levene test, the non-parametric comparison test and Kruskal-Wallis H test were conducted. When a significant difference was observed by the Kruskal-Wallis H test, the Mann-Whitney U (MW) test was used to determine the significance of specific pairwise comparisons. Statistical analyses were conducted using SPSS (Release 14K, SPSS Inc. USA; Ludbrook, Clin Exp Pharmacol Physiol, 1997; 24:294-6). In addition, the percentage change between the normal group and loperamide control was calculated to identify the severity of induced constipation, and then, in order to evaluate the efficacy of the test materials, the percent change compared with the loperamide control was calculated by equations 4 and 5.
(§5) Percent change compared with normal group (%)=(((normal group data)−(loperamide control data)/normal group data)×100) [Equation 4]
(§6) Percentage change (%) compared with loperamide control=(((loperamide control data−test material administered rat data)/(loperamide control data))×100) [Equation 5]

[3] = test system: loperamide-induced constipated rats; test: Remnant fecal pellets in the colon of loperamide-induced constipated rats; type: in vivo
Protocol: as §1, §2, §3
The total number and mean thickness (short axis) of remnant fecal pellets in the colonic lumen were measured when the gastrointestinal charcoal transit ratio was measured.
as §4, §5, §6

[4] = test system: loperamide-induced constipated rats; test: Gastrointestinal charcoal transit ratio in loperamide-induced constipated rats; type: in vivo; conditions: for Gastrointestinal charcoal transit ratio / Length of charcoal meal transferred: during 30 min after charcoal meal, after 6th administration, mean ± S.D. of nine rats
Protocol: as §1, §2, §3
The gastrointestinal propulsion of the charcoal meal was checked by the method disclosed in Sagar et al. BMC Complement Altern Med, 2005; 5:18, with minor modification. Prior to the experiment, animals were fasted for 18 hours (water supplied). Ten minutes after the 6th administration (last) of the test material, animals of each group were fed with 1 ml of charcoal meal (3% suspension of activated charcoal in 0.5% aqueous methylcellulose). Thirty minutes after charcoal meal ingestion, the animals of each group were sacrificed, and the total small intestine length (from pyloric sphincter to appendix) and the charcoal meal transit distance were measured. The gastrointestinal charcoal transit ratio was calculated by equation 3 below:
Charcoal transit ratio (%)=(([…])/total small intestine length)×100 [Equation 3]
as §4, §5, §6

[5] = test system: loperamide-induced constipated rats; test: Histomorphometry of the colon and remnant fecal pellets in loperamide-induced constipated rats; type: in vivo; conditions: for Colon mucosa thicknesses / Fecal pellet surface mucous thickness / Mucous producing cell numbers: at sacrifice, 6 days of administration, mean ± S.D. of nine rats; for Mucous producing cell numbers: colonic mucosa
Protocol: as §1, §2, §3
Histopathological assessment of the colonic mucosa and remnant fecal pellets in the colonic lumen was conducted by the method of Wu et al. J Ethnopharmacol, 2011; 134:406-13, with minor modification. In short, the distal colon fragment containing one fecal pellet was isolated using ligatures, removed, and immediately fixed with 10% formaldehyde (when the gastrointestinal charcoal transit ratio was measured). The fixed tissue segments were paraffin-embedded, and sliced into 3 μm-thickness cross sections. The sliced samples were stained with Alcian blue at pH 2.5. Five tissue segments per group were prepared, and histological profiles thereof were interpreted. The histopathologist was blinded to the group distributions at the time of analysis.
Histomorphometry: The mean thickness of the mucosal layers at the fecal surface (μm/fecal pellet), mucous-producing cell number (cells/mm^2) per unit area in the colonic mucosa, and the colonic mucosal thickness (μm/colon) were measured by using an automated image analyzer (DMI-300, DMI, Korea) under a light microscope.
as §4, §5

[6] = loperamide control 3 mg/kg, percent change compared with the normal group
[7] = at sacrifice after 6th administration, 18 h fasting, mean ± S.D. of nine rats
[8] = percent change compared with the loperamide control

With `CN(C)C(=O)C(CCN1CCC(O)(c2ccc(Cl)cc2)CC1)(c1ccccc1)c1ccccc1` [Loperamide, loperamide hydrochloride] as the compound, how does the “significant changes in body weight and weight gain” value ([1]; compared with the normal group and loperamide control) read?
The value was “not observed”.

What about the “change in weight gain during the administration period” value ([1]; loperamide control 3 mg/kg, percent change compared with normal group) of the same compound?
Its value is −7.92%.

What about the Fecal dry-weights [2] of the same compound?
The Fecal dry-weights was 4.17 ± 0.63^a g/24 hr/rat.

And the Fecal wet-weights [2]?
The Fecal wet-weights was 7.65 ± 1.25^d g/24 hr/rat.

What about the “Numbers of fecal pellets” value [2] of the same compound?
The value was 45.22 ± 4.97^d.

And the “Water contents of fecal pellets” value [2]?
Its value is 45.29 ± 4.06^a %.

And the “change in number of fecal pellets for 24 hours, 4 days after administration” value [2, 6]?
Its value is −27.45%.

And the “change in water content in fecal pellets for 24 hours, 4 days after administration” value [2, 6]?
Its value is −17.47%.

And the “Remnant fecal pellets in the colon: Numbers” value [3, 7]?
The value was 3.89 ± 1.05^a.

And the “change in mean diameter of remnant fecal pellets in the colon” value [3, 6]?
Its value is 57.96%.

And the “change in number of remnant fecal pellets in the colon” value [3, 6]?
The value was 118.75%.

And the “Gastrointestinal charcoal transit ratio” value [4]?
Its value is 61.20 ± 5.98^a %.

And the “Length of charcoal meal transferred” value [4]?
The value was 74.21 ± 6.41^a cm.

And the “change in intestinal charcoal transit ratio” value [4, 6]?
The value was −20.05%.

And the Colon mucosa thicknesses [5]?
Its Colon mucosa thicknesses is 104.38 ± 10.79^c μm.

And the “Fecal pellet surface mucous thickness” value [5]?
The value was 5.84 ± 2.53^a μm.

What about the “Mucous producing cell numbers” value [5] of the same compound?
Its value is 179.00 ± 46.31^c cells/mm^2.

And the “change in colon mucosa thickness” value [5, 6]?
Its value is −70.97%.

What about the “change in fecal pellet surface mucosal thickness in the colon” value [5, 6] of the same compound?
The value was −89.93%.

And the “change in mucous-producing cell number per unit area in the colonic mucosa” value [5, 6]?
Its value is −72.40%.

Which “Body weights at Last (6th) administration [B]” value ([1]; after overnight fasting, loperamide 3 mg/kg, Mg(OH)2 200 mg/kg/day or mineral water 30 ml/kg/day oral, mean ± S.D. of nine rats) does the source give for `[Mg+2].[OH-].[OH-]` [Mg(OH)2, Magnesium hydroxide] here?
Its value is 241.67 ± 10.36 g.

And the “Body weight gains [B − A]” value ([1]; last (6th) administration minus initiation of administration, mean ± S.D. of nine rats)?
The value was 22.44 ± 4.19 g.

What about the “change in weight gain during the administration period” value [1, 8] of the same compound?
Its value is 8.60%.

What about the “Body weights at Initiation of administration [A]” value ([1]; rats given loperamide 3 mg/kg, Mg(OH)2 200 mg/kg/day or mineral water 30 ml/kg/day oral, 6 days, mean ± S.D. of nine rats) of the same compound?
Its value is 219.22 ± 8.79 g.

And the “Body weights at Fifth administration” value ([1]; rats given loperamide 3 mg/kg, Mg(OH)2 200 mg/kg/day or mineral water 30 ml/kg/day oral, mean ± S.D. of nine rats)?
Its value is 260.33 ± 12.38 g.

What about the Fecal dry-weights [2] of the same compound?
The Fecal dry-weights was 4.21 ± 0.55^a g/24 hr/rat.

And the Fecal wet-weights [2]?
The Fecal wet-weights was 9.18 ± 0.88^dg g/24 hr/rat.

What about the “Numbers of fecal pellets” value [2] of the same compound?
Its value is 52.33 ± 4.21^ef.

And the “Water contents of fecal pellets” value [2]?
The value was 53.50 ± 9.99^c %.

And the “change in number of fecal pellets for 24 hours, 4 days after administration” value [2, 8]?
The value was 17.94%.

And the “change in water content in fecal pellets for 24 hours, 4 days after administration” value [2, 8]?
Its value is 18.12%.

What about the “Remnant fecal pellets in the colon: Numbers” value [3, 7] of the same compound?
The value was 1.89 ± 0.93^c.

What about the “change in mean diameter of remnant fecal pellets in the colon” value [3, 8] of the same compound?
The value was −18.76%.

What about the “change in number of remnant fecal pellets in the colon” value [3, 8] of the same compound?
Its value is −51.43%.

What about the “Remnant fecal pellets in the colon: Mean thicknesses” value ([3]; short axis, at sacrifice after 6th administration, 18 h fasting, mean ± S.D. of nine rats) of the same compound?
Its value is 5.26 ± 0.38^c μm.

And the “Gastrointestinal charcoal transit ratio” value [4]?
Its value is 66.76 ± 3.47^ac %.

And the “Length of charcoal meal transferred” value [4]?
Its value is 83.33 ± 6.06^a cm.

What about the “change in intestinal charcoal transit ratio” value [4, 8] of the same compound?
The value was 9.10%.

What about the Colon mucosa thicknesses [5] of the same compound?
Its Colon mucosa thicknesses is 164.16 ± 22.31^cd μm.

What about the “Fecal pellet surface mucous thickness” value [5] of the same compound?
Its value is 24.33 ± 7.82^ab μm.

And the “Mucous producing cell numbers” value [5]?
The value was 313.56 ± 42.27^cd cells/mm^2.

What about the “change in colon mucosa thickness” value [5, 8] of the same compound?
Its value is 57.27%.

And the “change in fecal pellet surface mucosal thickness in the colon” value [5, 8]?
Its value is 316.22%.

And the “change in mucous-producing cell number per unit area in the colonic mucosa” value [5, 8]?
The value was 75.17%.
